Reference: patent EP0048614B1, “1-N-acylated and 1-N-alkylated derivatives of 4-0-substituted -2-deoxystreptamine aminoglycosides” (ELI LILLY AND COMPANY, priority 1980, dated 1982)
Values after ≈ are worked out from the molar mass of the structure shown.

Legend:
Proteus rettgeri PR7 = assay: MIC, standard agar dilution test; format: cell-based; conditions: Providencia rettgeri, PR7, read-out: Minimum Inhibitory Concentration, Proteus rettgeri PR7
Description: (§1) The antibacterial activity of the deprotected compounds of this invention is illustrated by the following in vitro and in vivo test data obtained with representative compounds. In Table I, the minimum inhibitory concentration (MIC) for representative compounds against a wide range of gram-positive and gram-negative bacteria is presented. The MIC values were obtained by the standard agar dilution test.

Proteus morganii PR15 = assay: MIC, standard agar dilution test; format: cell-based; conditions: Morganella morganii, PR15, read-out: Minimum Inhibitory Concentration
Description: as §1

Escherichia coli EC14 = assay: MIC, standard agar dilution test; format: cell-based; conditions: Escherichia coli EC14; agar dilution; read-out: Minimum Inhibitory Concentration
Description: as §1

[1] = system: Streptococcus group D 9960; assay: MIC, standard agar dilution test; format: cell-based; conditions: D9960, read-out: Minimum Inhibitory Concentration
Description: as §1

[2] = system: Citrobacter freundii CF17; assay: MIC, standard agar dilution test; format: cell-based; conditions: Citrobacter freundii, CF17, read-out: Minimum Inhibitory Concentration
Description: as §1

Proteus rettgeri C24 = assay: MIC, standard agar dilution test; format: cell-based; conditions: Providencia rettgeri, C24, read-out: Minimum Inhibitory Concentration
Description: as §1

[3] = system: Salmonella heidelberg X514; assay: MIC, standard agar dilution test; format: cell-based; conditions: Salmonella enterica, X514, read-out: Minimum Inhibitory Concentration
Description: as §1

[4] = system: Hemophilus influenzae C.L.; assay: MIC, standard agar dilution test; format: cell-based; conditions: Haemophilus influenzae, read-out: Minimum Inhibitory Concentration, Hemophilus influenzae C.L.
Description: as §1

[5] = system: Pseudomonas aeruginosa X528; assay: MIC, standard agar dilution test; format: cell-based; conditions: Pseudomonas aeruginosa, X528, read-out: Minimum Inhibitory Concentration
Description: as §1

[6] = system: Streptococcus pyogenes C203; assay: MIC, standard agar dilution test; format: cell-based; conditions: Streptococcus pyogenes, C203, read-out: Minimum Inhibitory Concentration
Description: as §1

Serratia marcescens SE3 = assay: MIC, standard agar dilution test; format: cell-based; conditions: Serratia marcescens, SE3, read-out: Minimum Inhibitory Concentration
Description: as §1

[7] = system: Staphylococcus aureus S13E; assay: MIC, standard agar dilution test; format: cell-based; conditions: read-out: Minimum Inhibitory Concentration
Description: as §1

[8] = system: Pseudomonas aeruginosa X239; assay: MIC, standard agar dilution test; format: cell-based; conditions: Pseudomonas aeruginosa, X239, read-out: Minimum Inhibitory Concentration
Description: as §1

[9] = system: Streptococcus group D X66; assay: MIC, standard agar dilution test; format: cell-based; conditions: DX66, read-out: Minimum Inhibitory Concentration
Description: as §1

Hemophilus influenzae 76 = assay: MIC, standard agar dilution test; format: cell-based; conditions: Haemophilus influenzae, 76, read-out: Minimum Inhibitory Concentration, Hemophilus influenzae 76
Description: as §1

[10] = system: Staphylococcus aureus V41; assay: MIC, standard agar dilution test; format: cell-based; conditions: Staphylococcus aureus, V41, read-out: Minimum Inhibitory Concentration
Description: as §1

Escherichia coli TEM = assay: MIC, standard agar dilution test; format: cell-based; conditions: read-out: Minimum Inhibitory Concentration
Description: as §1

Enterobacter cloacae EB5 = assay: MIC, standard agar dilution test; format: cell-based; conditions: Enterobacter cloacae, EB5, read-out: Minimum Inhibitory Concentration
Description: as §1

[11] = system: Streptococcus pneumoniae Park I; assay: MIC, standard agar dilution test; format: cell-based; conditions: Streptococcus pneumoniae; read-out: Minimum Inhibitory Concentration
Description: as §1

[12] = system: Enterobacter aerogenes EB17; assay: MIC, standard agar dilution test; format: cell-based; conditions: Klebsiella aerogenes, EB17, read-out: Minimum Inhibitory Concentration
Description: as §1

Shigella sonnei N9 = assay: MIC, standard agar dilution test; format: cell-based; conditions: read-out: Minimum Inhibitory Concentration
Description: as §1

Serratia marcescens X99 = assay: MIC, standard agar dilution test; format: cell-based; conditions: Serratia marcescens, X99, read-out: Minimum Inhibitory Concentration, Serratia marcescens X99
Description: as §1

[13] = system: Pseudomonas aeruginosa Ps18; assay: MIC, standard agar dilution test; format: cell-based; conditions: Pseudomonas aeruginosa, PS18, read-out: Minimum Inhibitory Concentration
Description: as §1

[14] = system: Klebsiella pneumoniae X26; assay: MIC, standard agar dilution test; format: cell-based; conditions: Klebsiella pneumoniae, X26, read-out: Minimum Inhibitory Concentration
Description: as §1

[15] = system: Enterobacter aerogenes C32; assay: MIC, standard agar dilution test; format: cell-based; conditions: Klebsiella aerogenes, C32, read-out: Minimum Inhibitory Concentration
Description: as §1

[16] = system: Klebsiella pneumoniae KAE; assay: MIC, standard agar dilution test; format: cell-based; conditions: Klebsiella pneumoniae, read-out: Minimum Inhibitory Concentration
Description: as §1

[17] = system: Staphylococcus aureus X400; assay: MIC, standard agar dilution test; format: cell-based; conditions: Staphylococcus aureus, X400, read-out: Minimum Inhibitory Concentration, Staphylococcus aureus X400
Description: as §1

[18] = system: Enterobacter aerogenes X68; assay: MIC, standard agar dilution test; format: cell-based; conditions: Klebsiella aerogenes, X68, read-out: Minimum Inhibitory Concentration, Enterobacter aerogenes X68
Description: as §1

Proteus inconstans PR33 = assay: MIC, standard agar dilution test; format: cell-based; conditions: Providencia alcalifaciens, PR33, read-out: Minimum Inhibitory Concentration
Description: as §1

[19] = system: Enterobacter cloacae 265A; assay: MIC, standard agar dilution test; format: cell-based; conditions: Enterobacter cloacae, 265A, read-out: Minimum Inhibitory Concentration
Description: as §1

[20] = system: Salmonella typhimurium 1335; assay: MIC, standard agar dilution test; format: cell-based; conditions: Salmonella enterica, TYPHIMURIUM, read-out: Minimum Inhibitory Concentration
Description: as §1

Escherichia coli N10 = assay: MIC, standard agar dilution test; format: cell-based; conditions: Escherichia coli, N10, Escherichia coli N10; agar dilution; read-out: Minimum Inhibitory Concentration
Description: as §1

[21] = system: Staphylococcus aureus X1.1; assay: MIC, standard agar dilution test; format: cell-based; conditions: Staphylococcus aureus, X1.1, read-out: Minimum Inhibitory Concentration
Description: as §1

[22] = system: Bordetella bronchiseptica 16; assay: MIC, standard agar dilution test; format: cell-based; conditions: Bordetella bronchiseptica, 16, read-out: Minimum Inhibitory Concentration
Description: as §1

[23] = system: Staphylococcus epidermidis EPI2; assay: MIC, standard agar dilution test; format: cell-based; conditions: Staphylococcus epidermidis, EPI2, read-out: Minimum Inhibitory Concentration
Description: as §1

[24] = system: Staphylococcus epidermidis EPI1; assay: MIC, standard agar dilution test; format: cell-based; conditions: Staphylococcus epidermidis, EPI1; read-out: Minimum Inhibitory Concentration
Description: as §1

Escherichia coli X563 = assay: Standard disc-plate method, zone of inhibition against apramycin-resistant strain; format: cell-based; conditions: apramycin-resistant E. coli X563, one value for each of two test runs per compound
Description: Table III, shown below, illustrates the in vitro activity of 1-N-(S-y-amino-a-hydroxybutyryl)apramycin, 1-N-(RS-y-amino-a-hydroxybutyryl)apramycin, and 1-N-(S-y-amino-a-hydroxybutyryl)nebramine against an apramycin resistant strain of E. coli. The results below were obtained using the standard disc-plate method. The numerical values are the diameters in millimeters of the zones of inhibition observed against this bacterium. Compounds substituted with the y-amino-a-hydroxybutyryl and analogous side chains are useful in treating infections caused by apramycin resistant bacteria such as the one above.
The test organism (E. coli X563) used in the experiments summarized in Table III is resistant to apramycin due to a 3-N-acetyltransferase which enzymatically inactivates apramycin.

[25] = system: Staphylococcus aureus 3055; assay: Subcutaneous therapy of experimental bacterial infection in mice (ED50); format: in vivo; conditions: Staphylococcus aureus, 3055, sc, read-out: Effective Dose (ED50), mg/kg × 2 subcutaneous doses at 1 and 5 hours post infection; mice challenged with 68.1 LD50's
Description: Table II illustrates the effective dose (ED50, the effective dose to protect 50 percent of the test animals) for representative compounds of this invention against an experimental bacterial infection in mice.
The ED50 values were determined as described by W. E. Wick et al., Journal of Bacteriology, 81 [No. 2], 233-235 (1961).

With CNC1C(OC2OC(CO)C(N)C(O)C2O)OC2CC(N)C(OC3C(N)CC(NC(=O)C(O)CCN)C(O)C3O)OC2C1O (stereo not drawn) [Test Compound 1, 1-N-(S-γ-amino-α-hydroxybutyryl)apramycin] the MIC (Proteus rettgeri PR7) was 8 mg/L (≈ 12.5 µM), the MIC (Proteus morganii PR15) was 128 mg/L (≈ 200 µM) and the MIC (Escherichia coli EC14) was 16 mg/L (≈ 25 µM). The MIC [1] was greater than 128 mg/L, the MIC [2] was 16 mg/L (≈ 25 µM) and the MIC (Proteus rettgeri C24) was 8 mg/L (≈ 12.5 µM). The MIC [3] was 16 mg/L (≈ 25 µM), the MIC [4] was 16 mg/L (≈ 25 µM) and the MIC [5] was 64 mg/L (≈ 99.9 µM). The MIC [6] was 64 mg/L (≈ 99.9 µM), the MIC (Serratia marcescens SE3) was 16 mg/L (≈ 25 µM) and the MIC [7] was 16 mg/L (≈ 25 µM). The MIC [8] was 64 mg/L (≈ 99.9 µM), the MIC [9] was greater than 128 mg/L and the MIC (Hemophilus influenzae 76) was 16 mg/L (≈ 25 µM). It also gave an MIC [10] of 16 mg/L (≈ 25 µM), an MIC (Escherichia coli TEM) of 4 mg/L (≈ 6.24 µM) and an MIC (Enterobacter cloacae EB5) of 16 mg/L (≈ 25 µM). It also gave an MIC [11] of 64 mg/L (≈ 99.9 µM), an MIC [12] of 16 mg/L (≈ 25 µM) and an MIC (Shigella sonnei N9) of 16 mg/L (≈ 25 µM). It also gave an MIC (Serratia marcescens X99) of 8 mg/L (≈ 12.5 µM), an MIC [13] of 128 mg/L (≈ 200 µM) and an MIC [14] of 8 mg/L (≈ 12.5 µM). For the same molecule, the MIC [15] was 8 mg/L (≈ 12.5 µM), the MIC [16] was 16 mg/L (≈ 25 µM) and the MIC [17] was 32 mg/L (≈ 49.9 µM). It also gave an MIC [18] of 8 mg/L (≈ 12.5 µM), an MIC (Proteus inconstans PR33) of 8 mg/L (≈ 12.5 µM) and an MIC [19] of 32 mg/L (≈ 49.9 µM). The MIC [20] was 16 mg/L (≈ 25 µM), the MIC (Escherichia coli N10) was 8 mg/L (≈ 12.5 µM) and the MIC [21] was 8 mg/L (≈ 12.5 µM). The MIC [22] was 64 mg/L (≈ 99.9 µM), the MIC [23] was 4 mg/L (≈ 6.24 µM) and the MIC [24] was 8 mg/L (≈ 12.5 µM). For the same molecule, the “Zone of Inhibition (diameter in mm)” value (Escherichia coli X563; 15 mcg/disc, listed as 1) was 14.7 mm, the zone of inhibition at 15 µg/disc (Escherichia coli X563; Escherichia coli, X563, read-out: Zone of Inhibition (diameter in mm), 15 mcg/disc) was 12.4 mm and the ED50 [25] was less than 4.35 mg/kg.
